Test results published in patent US10702505B2, “Rifaximin” (CIPLA Limited, priority 2006, dated 2020).
Where two headings read alike, the source gives them in different places.

What was measured:
Format in all cases: physicochemical
[1] = intrinsic dissolution of amorphous rifaximin against the α Form; settings: 37±0.5° C., 100 rpm
Procedure: Temperature: 37±0.5° C. Rotation speed: 100 rpm Particle size: Amorphous rifaximin—11 microns • α Form of rifaximin—13 microns

tapped density = assay: tapped density
bulk density = assay: bulk density
[2] = 15 minutes, 1000 ml 0.1M sodium dihydrogen phosphate monohydrate + 4.5 g sodium lauryl sulphate

Row | SMILES | intrinsic dissolution profile compared with α Form ([1]; 0.1M sodium dihydrogen phosphate monohydrate + sodium lauryl sulphate) | % Release [1, 2] | % Release ([1]; 30 minutes, same medium) | % Release ([1]; 45 minutes, same medium) | % Release ([1]; 60 minutes, same medium) | % Release ([1]; 120 minutes, same medium) | % Release ([1]; 180 minutes, same medium) | % Release ([1]; 240 minutes, same medium) | % Release ([1]; 360 minutes, same medium) | % Release ([1]; 480 minutes, same medium) | % Release ([1]; 600 minutes, same medium) | % Release ([1]; 720 minutes, same medium) | % Release ([1]; 960 minutes, same medium) | % Release ([1]; 1200 minutes, same medium) | % Release ([1]; 1400 minutes, same medium) | tapped density (tapped density) | bulk density (bulk density) | tapped density (tapped density; listed as α Form rifaximin) | bulk density (bulk density; listed as α Form rifaximin)
1 | CO[C@H]1/C=C/O[C@@]2(C)Oc3c(C)c(O)c4c(O)c(c5c(nc6cc(C)ccn65)c4c3C2=O)NC(=O)/C(C)=C\C=C\[C@H](C)[C@H](O)[C@@H](C)[C@@H](O)[C@@H](C)[C@H](OC(C)=O)[C@@H]1C [Amorphous Rifaximin, (2S,16Z,18E,20S,21S,22R,23R,24R,25S,26 S,27S,28E)-5,6,21,23,25-pentahydroxy-27-methoxy-2,4,11,16,20,22,24,26-octamethyl-2,7-(epoxypentadeca-[1,11,13]trienimino)benzofuro[4,5-e]pyrido[1,2-a]-benzimida-zole-1,15(2H)-dione,25-acetate] | better dissolution profile than α Form | 1.1% | 1.9% | 2.9% | 3.7% | 8.1% | 12.6% | 16.6% | 24.7% | 32.0% | 39.5% | 46.4% | 60.4% | 72.9% | 83.0% | 0.4 to 0.5 g/mL | 0.3 to 0.4 g/mL |  | 
2 | CO[C@H]1/C=C/O[C@@]2(C)Oc3c(C)c(O)c4c(O)c(c5c(nc6cc(C)ccn65)c4c3C2=O)NC(=O)/C(C)=C\C=C\[C@H](C)[C@H](O)[C@@H](C)[C@@H](O)[C@@H](C)[C@H](OC(C)=O)[C@@H]1C [α Form of Rifaximin, (2S,16Z,18E,20S,21S,22R,23R,24R,25S,26 S,27S,28E)-5,6,21,23,25-pentahydroxy-27-methoxy-2,4,11,16,20,22,24,26-octamethyl-2,7-(epoxypentadeca-[1,11,13]trienimino)benzofuro[4,5-e]pyrido[1,2-a]-benzimida-zole-1,15(2H)-dione,25-acetate, reference compound] |  | 0.8% | 1.8% | 3.0% | 4.4% | 11.0% | 18.0% | 24.6% | 38.7% | 47.5% | 52.7% | 56.4% | 62.9% | 67.8% | 72.7% |  |  | 0.3 to 0.4 g/mL | 0.2 to 0.3 g/mL
